The results in this text go back to PubChem BioAssay AID2060347 (Molecular Pharmacology Branch, DTP, NCI, 2025).

Broadly, the viability, T/C is the result in the treated group divided by that in the control group, in per cent. As a reminder, the IC50 is the point on the concentration scale where inhibition reaches its midpoint.

“And” between values parts separate entries of the source, which are not always exact repeats. Equal values may be shown once. The source made the active and inactive calls. The calls were made as follows: active = viability on the fitted dose curve at most 10% of control; inactive = the rest.

The test has as its system 817829-284-R-J1-PDC spheroids with HUVEC/MSC, viability. Put plainly: Anticancer human tumor 817829-284-R-J1-PDC patient-derived colon adenocarcinoma cell line growth inhibition [TAK]. To be noted: for viability, T/C: stronger effect = lower value. An excerpt: Combinatorial screen of targeted agents with TAK-243 and ipatasertib in multi-cell type tumor spheroids
A high-throughput screen of multi-cell type tumor spheroids was designed to identify active combinations of targeted small molecules and TAK-243 or ipatasertib. Complex spheroids include a stromal component modeled by human endothelial cells (HUVEC) and fibroblasts modeled by human mesenchymal stem cells (MSCs). The concentration ranges selected for each drug and investigational agent were based upon clinically achievable concentrations if the clinical Cmax of the agent was known.
Compounds. The drugs and investigational agents: TAK-243 (785004), ipatasertib (767898), everolimus (733504), selumetinib (741078), bortezomib (756655), trametinib (758246), ixazomib (758254), vemurafenib (761431), dabrafenib (764134), sapanisertib (764658), alpelisib (765974), and copanlisib (816437), were obtained from the National Cancer Institute (NCI) Developmental Therapeutics Program Chemical Repository. The FDA-approved anticancer drug set is available from the NCI Developmental Therapeutics Program. […] The stock solutions were prepared in dimethyl sulfoxide (DMSO, Sigma-Aldrich, St. Louis, MO, cat. D2650) at 800-fold the tested concentration and stored at -70 degrees C prior to their use. All drugs and investigational agents were tested over a range starting from a high concentration at or near the clinical Cmax and decreasing in half-log increments. If the clinical Cmax for an agent had not been determined, the highest concentration tested was 10 microM.
NCI60 Cell Culture. NCI60 cell lines were obtained from the NCI Developmental Therapeutics Program Tumor Repository. For each lot of cells, the Repository performed Applied Biosystems AmpFLSTR Identifiler testing with PCR amplification to confirm consistency with the published Identifier STR profile for each cell line. Cells were kept in continuous culture for no more than 20 passages. The optimal seeding densities for each of the cell lines at each time point assessed were determined prior to performing the concentration response studies. Briefly, the NCI60 human tumor lines were grown as monolayers in RPMI 1640 medium supplemented with 10% FBS and 2 mmol/L L-glutamine.
An additional 2 lines were from the NCI60 cell line panel including melanomas, MALME-3M and SK-MEL-2. Pooled donor human umbilical vein endothelial cells (HUVEC, Lonza, cat. CC-2519) and human mesenchymal stem cells (hMSC, Lonza, cat. PT-2501) were purchased from Lonza (Walkersville, MD).
PDMR cell lines were grown in complete medium (DC medium): Dulbecco's modified Eagle's medium (DMEM)/F12 supplemented with 5% fetal bovine serum (FBS), 2 mM L-glutamine, 100 U/mL penicillin and 100 µg/ml streptomycin, 0.4 µg/ml hydrocortisone, 10 ng/ml epidermal growth factor (EGF) recombinant human protein, 24 µg/mL adenine, and 0.1 mg/mL primocin. During culture from frozen stock vials, PDMR cells were cultured in the same medium containing 10 µM Y-27632 (see Table 3). The PDCs were cultured in complete DMEM/F12 media without 10 microM Y-27632 dihydrochloride for at least two passages prior to the screen. The pooled donor HUVEC and hMSC were cultured in endothelial cell growth medium 2 (PromoCell, Heidelberg, Germany, cat. C-22011) and mesenchymal stem cell growth medium 2 (PromoCell, cat. C-28009), respectively. For all experiments, HUVEC and hMSC were used at passages </=5.
For the pre-screen, cell seeding densities were determined from a titration spanning the range from 5,000 to 313 cells per well. The mct-spheroids including 60% malignant cells, 25% HUVEC and 15% MSC dispensed as a mixture into U-bottom Ultra-Low Attachment 384-well plates (Corning, NY)
High-throughput Drug Combination Screening.
Prior to their inoculation into 384-well plates, malignant cells, HUVEC, and hMSC were removed from T flasks using TrypLE express (Thermo Fisher Scientific, cat. 12605036) and harvested by centrifugation for 5 min at 233 x g. […]

Take `CC(=O)Nc1cccc(-n2c(=O)n(C3CC3)c(=O)c3c(Nc4ccc(I)cc4F)n(C)c(=O)c(C)c32)c1`: the viability, T/C was 104% and 103% (compound 94.9 pM); 93% and 94.2% (compound 0.0003 µM); 85.1% and 82.9% (compound 0.000949 µM); 65.9% and 53.9% (compound 0.003 µM); 25.9% and 33.9% (compound 0.00949 µM); 10.8% and 11% (compound 0.03 µM). Besides, where the note is “curve of compound”, the concentration for half-maximal inhibition (IC50) was 4.58 nM and 4.15 nM.
As to `CC(C)(C)c1nc(-c2cccc(NS(=O)(=O)c3c(F)cccc3F)c2F)c(-c2ccnc(N)n2)s1`, the viability, T/C reads like this: (compound 0.0316 µM) 98.1% and 94%; (compound 0.1 µM) 87.5% and 82.2%; (compound 0.316 µM) 54.2% and 63.3%; (compound 1 µM) 31%; (compound 3.16 µM) 64.7% and 54.7%; (compound 10 µM) 46.4% and 50.4%. Further, the result (compound 1 µM) was inactive.
Consider `CC(C)CC(NC(=O)C(Cc1ccccc1)NC(=O)c1cnccn1)B(O)O` (centres undefined), for which the viability, T/C runs as follows: (compound 31.6 pM) 102% and 95.1%; (compound 0.0001 µM) 99.1% and 89.3%; (compound 0.000316 µM) 98.6% and 94.7%; (compound 0.001 µM) 89.5% and 98.6%; (compound 0.00316 µM) 103% and 99.9%. Moreover, the IC50 (curve of compound) is 5.61 nM and > 10 nM.
Turning to `CC(C)CC(NC(=O)CNC(=O)c1cc(Cl)ccc1Cl)B1OC(=O)CC(CC(=O)O)(C(=O)O)O1` (centres undefined), the viability, T/C is, setting by setting: (compound 0.000316 µM) 106% and 97.9%; (compound 0.001 µM) 107% and 100%; (compound 0.00316 µM) 111% and 99.2%; (compound 0.01 µM) 103% and 105%; (compound 0.0316 µM) 3.63% and 22.3%; (compound 0.1 µM) 0.47% and 0.3%. The IC50 (curve of compound) is 18.5 nM and 21 nM.
Turning to `CC(C)NCC(C(=O)N1CCN(c2ncnc3c2C(C)CC3O)CC1)c1ccc(Cl)cc1` (centres undefined), the viability, T/C runs as follows: (compound 3 µM) 15.9% [middle of 10 runs]; (compound 9.49 µM) 11.2% [middle of 10 runs]; (compound 30 µM) 6.54% [middle of 10 runs]. The half-maximal inhibitory concentration (IC50) by setting is: (compound alone, run of 02/28/2020) 1.55 µM [middle of 6 runs]; (compound alone, run of 03/19/2020) 665 nM [middle of 4 runs].
For the compound `CC(C)n1nc(-c2ccc3oc(N)nc3c2)c2c(N)ncnc21`, the viability, T/C was 101% and 104% (compound 0.000316 µM); 102% and 99% (compound 0.001 µM); 101% and 102% (compound 0.00316 µM); 93% and 92.9% (compound 0.01 µM); 56.8% and 61.2% (compound 0.0316 µM); 21.3% and 33.1% (compound 0.1 µM). For the setting “curve of compound”, the IC50 is 39.4 nM and 50 nM.
`CCCS(=O)(=O)Nc1ccc(F)c(C(=O)c2c[nH]c3ncc(-c4ccc(Cl)cc4)cc23)c1F`: the viability, T/C reads like this: (compound 0.316 µM) 89.1% and 93%; (compound 1 µM) 81.3% and 89.1%; (compound 3.16 µM) 62.7% and 34.4%; (compound 10 µM) 12.4% and 10.9%; (compound 31.6 µM) 56.8% and 26.3%; (compound 100 µM) 59.9% and 43.6%. Further, the IC50 (curve of compound) is 6650 nM and 2270 nM.
Turning to `COC1CC2CCC(C)C(O)(O2)C(=O)C(=O)N2CCCCC2C(=O)OC(C(C)CC2CCC(OCCO)C(OC)C2)CC(=O)C(C)C=C(C)C(O)C(OC)C(=O)C(C)CC(C)C=CC=CC=C1C` (centres undefined), the viability, T/C by setting is: (compound 0.000316 µM) 104% and 110%; (compound 0.001 µM) 99.8% and 102%; (compound 0.00316 µM) 94% and 99.6%; (compound 0.01 µM) 81% and 86.2%; (compound 0.0316 µM) 79.2% and 82.3%; (compound 0.1 µM) 63.9% and 75%. For the same compound, under “curve of compound”, the half-inhibitory concentration (IC50) was greater than 100 nM.
As to `COc1c(OCCCN2CCOCC2)ccc2c3n(c(=NC(=O)c4cnc(N)nc4)nc12)CCN3`, the viability, T/C reads like this: (compound 0.00316 µM) 104% and 105%; (compound 0.01 µM) 90.7% and 96.1%; (compound 0.0316 µM) 63.8% and 44.4%; (compound 0.1 µM) 18.7% and 13.9%; (compound 0.316 µM) 3.92% and 2.94%; (compound 1 µM) 2.85% and 3.44%. Moreover, for the setting “curve of compound”, the IC50 was 44 nM and 28.7 nM.
Regarding `Cc1nc(NC(=O)N2CCCC2C(N)=O)sc1-c1ccnc(C(C)(C)C(F)(F)F)c1` (centres undefined), the viability, T/C is 96.8% and 102% (compound 0.0316 µM); 98.7% and 96.4% (compound 0.1 µM); 94.8% and 94.7% (compound 0.316 µM); 88.1% and 93% (compound 1 µM); 79.6% and 80% (compound 3.16 µM); 48.1% and 49.1% (compound 10 µM). For the setting “curve of compound”, the IC50 is 9420 nM and 9840 nM.
As for `Cn1cnc2c(F)c(Nc3ccc(Br)cc3Cl)c(C(=O)NOCCO)cc21`, the viability, T/C (compound 0.00949 µM) is 89.3% and 94.4%; the viability, T/C (compound 0.03 µM) is 86.4% and 83.3%; the viability, T/C (compound 0.0949 µM) was 79% and 79.5%; the viability, T/C (compound 0.3 µM) is 72% and 66.6%; the viability, T/C (compound 0.949 µM) is 55.7% and 53.5%; the viability, T/C (compound 3 µM) was 25.6% and 20.5%. For the same compound, the IC50 (curve of compound) was 1150 nM and 953 nM.
